The subject of experiment [1] is c-Myc expression. As to the kind of experiment: JQ1-induced decrease of c-Myc expression, qPCR. Type of experiment: cell-based. Conditions: MOLM13 (FLAG-ENL), 50 μM, 24 hours then another 24 hours. From the text: (§1) FIG. 49A is a graph showing the effect of treatment of MOLM13 cells with compound 39 (XL-13m) on the sensitivity of JQ1-induced decrease in c-Myc expression. Expression of c-Myc was quantified by qPCR. P value by student's t-test. Mean±s.d., three biological replicates. FIG. 49B is a graph showing the effect of treatment of MOLM13 cells with compound 39 (XL-13m) on enrichment of ENL on indicated genes. […] P value by student's t-test. Mean±s.d., triplicate PCR analysis.
(§2) MOLM13 (FLAG-ENL) cells were cultured with or without 50 μM compound XL-13m. Every 2-3 days, live cells were counted by trypan blue exclusion assay and re-plated. […] MOLM13 (FLAG-ENL) cells were cultured with or without 50 μM compound XL-13m for 24 hours, and the cells were treated with 50 μM for another 24 hours. […] Expression of c-Myc was quantified by qPCR.

The target of experiment [2] is T1, ENL YEATS domain (Homo sapiens, UniProt Q03111).
T1 construct: His-SUMO-ENL (1-138); His (N); SUMO (N); made in house; host or cells: E. coli Rosetta
T1 sequence (Q03111 1-138): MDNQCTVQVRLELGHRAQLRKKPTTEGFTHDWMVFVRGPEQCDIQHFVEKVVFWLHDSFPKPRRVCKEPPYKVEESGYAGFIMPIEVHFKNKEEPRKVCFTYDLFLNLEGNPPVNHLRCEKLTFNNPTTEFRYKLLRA
As to the kind of experiment: Photo-cross-linking-based competition assay. In kind it is binding. Conditions: competition with photoaffinity probe, in-gel fluorescence.

Experiment [3] concerns the target T2, ENL (Homo sapiens, UniProt Q03111).
T2 construct: expressed in transfected cells; host or cells: MOLM-13 (FLAG-ENL) cells
T2 sequence (Q03111 1-559): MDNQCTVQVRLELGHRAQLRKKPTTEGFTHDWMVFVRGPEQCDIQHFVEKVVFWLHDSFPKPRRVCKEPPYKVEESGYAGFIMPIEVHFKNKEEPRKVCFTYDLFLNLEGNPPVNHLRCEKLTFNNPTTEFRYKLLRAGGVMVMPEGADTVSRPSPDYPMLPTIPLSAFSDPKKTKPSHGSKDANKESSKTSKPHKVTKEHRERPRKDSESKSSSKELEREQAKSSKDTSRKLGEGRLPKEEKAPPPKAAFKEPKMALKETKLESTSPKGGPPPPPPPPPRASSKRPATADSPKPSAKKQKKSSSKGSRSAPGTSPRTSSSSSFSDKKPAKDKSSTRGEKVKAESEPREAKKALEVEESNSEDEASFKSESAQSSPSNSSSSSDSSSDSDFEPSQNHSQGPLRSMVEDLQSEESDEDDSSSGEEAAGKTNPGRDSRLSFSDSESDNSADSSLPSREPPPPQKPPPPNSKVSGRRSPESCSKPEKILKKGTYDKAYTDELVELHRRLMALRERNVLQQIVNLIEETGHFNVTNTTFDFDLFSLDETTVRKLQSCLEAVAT
The experiment can be described thus: ChIP-qPCR of ENL enrichment on genes in MOLM13 (FLAG-ENL) cells. In kind it is cell-based. Conditions: 50 μM, 72 hours.
Excerpt: as §1
MOLM13 (FLAG-ENL) cells were cultured with or without 50 μM compound XL-13m for 72 hours. […] MOLM13 (FLAG-ENL) cells were incubated with or without 50 μM compound for 16 hours and then were collected for cellular thermal shift assay (CETSA) as previously reported. Anti-FLAG antibody was used to detect ENL proteins and γ-actin blotting served as negative control.

For experiment [4], the target named is T3, AF9 YEATS domain (Homo sapiens, UniProt P42568).
T3 construct: His-AF9 (1-138); His (N); made in house; host or cells: E. coli Rosetta
T3 sequence (P42568 1-138): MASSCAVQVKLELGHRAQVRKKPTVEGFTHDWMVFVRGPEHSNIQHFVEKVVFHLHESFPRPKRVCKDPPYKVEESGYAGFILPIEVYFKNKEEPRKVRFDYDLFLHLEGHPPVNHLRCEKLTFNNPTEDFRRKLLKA
The experiment can be described thus: Photo-cross-linking-based competition assay (photoaffinity probe, click chemistry, in-gel fluorescence). Conditions: ratio of IC50 values. Type of experiment: binding. The procedure:
Mobile phase used were water with 0.1% trifluoroacetic acid (buffer A) and 90% acetonitrile in water with 0.1% trifluoroacetic acid (buffer B). The purity (>95%) and identity of peptides were confirmed by LC-MS. The inhibitory activities of the inhibitors were determined by a photo-cross-linking-based competition assay. […] The reactions were incubated for 1 h at r.t . . . . The reactions were quenched by adding 5 volumes of ice-cold acetone and placed at −20° C. overnight to precipitate proteins. After protein precipitation, samples were centrifuged at 6000×g for 5 min at 4° C. The supernatant was discarded and the pellet was washed with ice-cooled methanol twice and air-dried for 10 min. […] Samples were then resolved by SDS-PAGE. The labeled proteins were visualized by scanning the gel on a Typhoon 9410 variable mode imager (excitation 532 nm, emission filter 580 nm). A photo-cross-linking based method was used in this study to estimate inhibitory activity (FIG. 28). This method requires the use of a photoaffinity probe. The probe (probe 1 (SEQ ID NO:48), see below) is derived from a crotonylated peptide, ligand of the protein, carrying a photo-cross-linker and a terminal alkyne as bioorthogonal. The YEATS domain is incubated and bound to the probe through Kcr-dependent recognition. Upon UV-irradiation, the photo-cross-linker is activated and rapidly cross-linked to the protein, converting the non-covalent protein-probe interaction into a covalent linkage. The probe-labeled protein is subsequently conjugated to an azide-functionalized fluorescence dye (for example, rhodamine-N3, Rho-N3) via Cu(I)-catalyzed azide-alkyne cycloaddition (CuAAC, or “click” chemistry). After SDS-PAGE, the protein can be visualized by in-gel fluorescence scanning. If photo-cross-linking of the YEATS domain with photoaffinity probe is performed in the presence of an inhibitor, which occupies the Kcr binding pocket of the YEATS domain and thus inhibits the protein-probe interaction, the percentage of the YEATS domain in the sample that is labeled by the probe will be reduced. The in-gel fluorescence intensity detected will also be decreased. By varying the concentration of inhibitor added in the sample and quantifying the resulting fluorescence intensities, a competition curve of the inhibitor toward the protein-probe interaction will be obtained, which can be used to estimate the IC50 value. Due to the covalent nature of photo-cross-linking, weak protein-protein interactions can be captured and eventually visualized. The protein concentration used in the assay can be as low as several nanograms per microliter, while the fluorescence signal can still be robustly detected and quantified.

For experiment [5], the system named is MOLM13 (FLAG-ENL) cells. As to the kind of experiment: Cell proliferation, trypan blue exclusion count. In kind it is cell-based. Conditions: 50 μM, live cells counted every 2-3 days. Here is the method:
as §2

Experiment [6] has as its target T2, ENL. As to the kind of experiment: Cellular thermal shift assay (CETSA) in MOLM-13 (FLAG-ENL) cells. In kind it is cell-based. The following applies: MOLM13 (FLAG-ENL), 50 μM, 16 hours, anti-FLAG. Here is the method:
We next applied the cellular thermal shift assay (CETSA) to examine if XL-13m was cell permeable and could target ENL in living cells. MOLM-13 (FLAG-ENL) were treated with XL-13m for […] and then heated at different temperature to denature and precipitate proteins. […] Soluble proteins were extracted by freeze-thaw cycle and subjected to western blotting analysis.
MOLM13 (FLAG-ENL) cells were incubated with or without 50 μM compound for 16 hours and then were collected for cellular thermal shift assay (CETSA) as previously reported. Anti-FLAG antibody was used to detect ENL proteins and γ-actin blotting served as negative control.

SMILES strings stand for the structures.

This note sets out measurements from patent US11512111B2, “Yeats inhibitors and methods of use thereof” (The University of Hong Kong, priority 2017, dated 2022).

With `CC(=O)N[C@@H](C)C(=O)N[C@@H](CCCNC(=N)N)C(=O)N[C@@H](CCCCNC(=O)c1cnco1)C(N)=O` [Compound 39], in experiment [1], the “sensitivity of JQ1-induced decrease of c-Myc expression” value was “increased the sensitivity”. This compound also registered an IC50 in experiment [2] of 560 nM. In experiment [3], the “enrichment of ENL on indicated genes” value was “decrease of the enrichment of ENL”. Further, in experiment [4], the “activity on AF9 weaker than on ENL” value was 4.5 fold. For the same compound, the “effect on cell proliferation” value in experiment [5] is “affected cell proliferation”. In addition, the “thermal shift: targeting of ENL protein in living cells” value in experiment [6] was “revealed the target of ENL protein”.
